According to paper PMC9821843, “Powerful Potential of Polyfluoroalkyl-Containing 4-Arylhydrazinylidenepyrazol-3-ones for Pharmaceuticals” (Molecules, 2022):
≈ marks a conversion by molar mass, not a printed value. Where two headings read alike, the source gives them in different places.

Columns and labels:
[1] = Oxygen radical absorbance capacity (ORAC-FL) assay; settings: n.a. = inactive; i.t.s. = interferes with test system
Outline: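 Fluorescein oxidative degradation by the peroxyl radical generator AAPH is monitored in the presence of test compound, a HAT-based read-out. Activity is expressed relative to Trolox as reference antioxidant.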

[2] = ABTS radical cation scavenging activity assay; set-up: key to ABTS•+-scavenging activity, TEAC (trolox equivalent antioxidant capacity): TEAC = ratio of compound slope to Trolox slope vs ABTS absorbance; settings: mean ± SEM; for ABTS•+-scavenging activity, TEAC (trolox equivalent antioxidant capacity): n.a. = inactive
Outline: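 ABTS•+ (from 7 mM ABTS plus 2.45 mM persulfate) mixed with compound, 5 × 10^–7–4 × 10^–4 M, 1 h at 30 °C; absorbance decrease read at 734 nm. TEAC from slope ratio versus Trolox; IC50 as 50% radical reduction for compounds exceeding 60% reduction at 100 µM.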

[3] = Ferric reducing antioxidant power (FRAP) assay; settings: 20 μM; n.a. = inactive
Source text: The FRAP assay measures the ability of anti-oxidants to reduce the ferric 2,4,6-tripyridyl-s-triazine complex [Fe(TPTZ)2]^3+ to the intensely blue ferrous colored complex [Fe(TPTZ)2]^2+ with an absorption maximum at λ = 593 nm. The reducing ability of a compound is an indicator of its potential anti-oxidant activity. 2,4,6-Tris(pyridin-2-yl)-1,3,5-triazine (TPTZ), FeCl3·6H2O, Trolox and DMSO were obtained from Sigma-Aldrich Chemical Co (St. Louis, MO, USA).
The ferric reducing ability of the compounds was determined by the method in microplate adapted version described in [116]. The FRAP reagent was prepared by mixing acetate buffer (0.3 M, pH 3.6), TPTZ (10 mM in 40 mM HCl) and FeCl3·6H2O (20 mM in distilled water) in a ratio of 10:1:1 immediately before use. Compounds were dissolved in DMSO and tested in the concentration 20 μM. The solvent content in the reaction mixture was 4% (v/v). The test compounds (10 μL of 0.5 mM solution) were added to the FRAP reagent solution (240 μL) and mixed thoroughly. The reaction was carried out at 37 °C in the dark; the incubation time was 1 h. The absorbance at 600 nm was monitored spectrophotometrically by a FLUOStar OPTIMA microplate reader (BMG Labtech, Ortenberg, Germany) at 37 °C. Trolox was used as a reference compound. Values were obtained from four replicates of each sample in three independent experiments.
The ferric reducing ability of compounds was expressed as TE units (antioxidant activity in Trolox equivalent), the values calculated as the ratio of the concentrations of Trolox and the test compound resulting in the same effect. The calculations were carried out using Origin 6.1 for Windows. Results were presented as mean ± SEM, calculated using GraphPad Prism version 6.05 for Windows, GraphPad Software.

[4] = tested on: HeLa tumor cell line; assay: Cytotoxicity against HeLa cells (MTT assay); assay type: cell-based, human; settings: Homo sapiens, HeLa, 72 h, read-out: IC50, HeLa
Experimental: (§1) Cytotoxicity of compounds was evaluated using a culture of human dermal fibroblasts, which were isolated in the Laboratory of Cell Cultures of the Institute of Medical Cell Technologies, Ekaterinburg, Russia and a HeLa tumor cell line obtained at the shared research facility «Vertebrate cell culture collection» of the Institute of Cytology of the Russian Academy of Sciences, St. Petersburg, Russia. Cells were seeded in 96-well plates in the inoculum dose of 2 × 10^5 cells/mL and cultured for 24 h in DMEM, with 1% glutamine in the presence of 10% fetal bovine serum and gentamicin (50 mg/L) at 37 °C, with humidified atmosphere of 5% CO2. Then compounds, which were dissolved in DMSO, were added to the wells at the final concentrations of 10^–7, 10^–6, 10^–5 and 10^–4 M. The cells were incubated with compounds for 72 h, after which cell viability was assessed using the standard MTT assay. The assay was carried out in four replicates with negative (culture medium), positive (solution of the cytotoxic drug camptothecin at a concentration of 3 mM) controls and the solvent control (DMSO). The results of the MTT assay were evaluated on a Tecan Infinite M200 PRO (Tecan Austria GmbH, Grödig, Austria) plate spectrophotometer by comparing the optical density of a formazan solution at 570 nm in the assay and control wells. The half maximal inhibitory concentrations (IC50) were calculated by AAT Bioquest-calculator (https://www.aatbio.com/tools/ic50-calculator (accessed on 14 November 2022)).

[5] = tested on: human dermal fibroblasts; assay: Cytotoxicity against human dermal fibroblasts (MTT assay); assay type: cell-based; settings: Fibroblast, 72 h, read-out: IC50, Human Dermal Fibroblasts
Experimental: as §1

[6] = molecular target: T1, human erythrocyte acetylcholinesterase (AChE, EC 3.1.1.7) (Homo sapiens, UniProt P22303); assay: Inhibition of human erythrocyte acetylcholinesterase (Ellman assay); assay type: biochemical; settings: read-out: Inhibition % at 20 µM, Human AChE
T1 construct: human erythrocyte acetylcholinesterase (AChE, EC 3.1.1.7); purchased Sigma-Aldrich (Saint Louis, MO, USA); host or cells: human erythrocytes
T1 sequence (P22303 32-617 isoform P22303-2 limits assumed): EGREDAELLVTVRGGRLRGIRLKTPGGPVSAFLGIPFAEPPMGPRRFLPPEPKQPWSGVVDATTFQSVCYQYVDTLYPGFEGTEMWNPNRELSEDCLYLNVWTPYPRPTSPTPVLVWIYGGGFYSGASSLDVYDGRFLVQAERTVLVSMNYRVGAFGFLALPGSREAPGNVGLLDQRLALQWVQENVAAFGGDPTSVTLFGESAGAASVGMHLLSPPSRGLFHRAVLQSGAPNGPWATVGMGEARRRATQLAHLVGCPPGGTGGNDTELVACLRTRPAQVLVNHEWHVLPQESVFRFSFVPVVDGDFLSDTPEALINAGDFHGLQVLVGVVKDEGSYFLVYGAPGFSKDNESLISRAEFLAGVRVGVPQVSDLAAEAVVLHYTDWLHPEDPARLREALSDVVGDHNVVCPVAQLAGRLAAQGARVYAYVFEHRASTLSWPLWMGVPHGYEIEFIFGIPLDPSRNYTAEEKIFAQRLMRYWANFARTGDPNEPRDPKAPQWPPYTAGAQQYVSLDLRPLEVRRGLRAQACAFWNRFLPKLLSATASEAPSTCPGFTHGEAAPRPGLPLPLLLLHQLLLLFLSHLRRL
Source text: (§2) The following enzymes were purchased from Sigma-Aldrich (Saint Louis, MO, USA): porcine liver carboxylesterase (CES, EC 3.1.1.1), human erythrocyte acetylcholinesterase (AChE, EC 3.1.1.7) and equine serum butyrylcholinesterase (BChE, EC 3.1.1.8). Substrates for CES, AChE and BChE were 4-nitrophenyl acetate (4-NPA), acetylthiocholine iodide (ATCh) and butyrylthiocholine iodide (BTCh), respectively, and the colorimetric reagent for the AChE and BChE assays was 5,5’-dithio-bis-(2-nitrobenzoic acid) (DTNB) (Sigma-Aldrich). All the kinetic experiments were performed under standard conditions, according to the protocol of IPAC RAS for a reversible inhibitors study.
Reagent blanks consisted of reaction mixtures without enzyme to assess non-enzymatic hydrolysis of substrates.
Test compounds were dissolved in DMSO. Reaction mixtures contained a final DMSO concentration of 2% (v/v). […] Measurements were performed in a Bio-Rad Benchmark Plus microplate reader. Each experiment was performed in triplicate. Plots, linear regressions and values of IC50, were determined using Origin 6.1 for Windows, OriginLab (Northampton, MA, USA).

[7] = molecular target: porcine liver carboxylesterase (CES, EC 3.1.1.1) (Sus scrofa, UniProt Q29550); assay: Inhibition of porcine liver carboxylesterase (4-NPA colorimetric assay); assay type: biochemical; settings: 20 µM; n.a. = inactive at 20 µM; mean ± SEM, n = 3
porcine liver carboxylesterase (CES, EC 3.1.1.1), sequence (Q29550 19-566): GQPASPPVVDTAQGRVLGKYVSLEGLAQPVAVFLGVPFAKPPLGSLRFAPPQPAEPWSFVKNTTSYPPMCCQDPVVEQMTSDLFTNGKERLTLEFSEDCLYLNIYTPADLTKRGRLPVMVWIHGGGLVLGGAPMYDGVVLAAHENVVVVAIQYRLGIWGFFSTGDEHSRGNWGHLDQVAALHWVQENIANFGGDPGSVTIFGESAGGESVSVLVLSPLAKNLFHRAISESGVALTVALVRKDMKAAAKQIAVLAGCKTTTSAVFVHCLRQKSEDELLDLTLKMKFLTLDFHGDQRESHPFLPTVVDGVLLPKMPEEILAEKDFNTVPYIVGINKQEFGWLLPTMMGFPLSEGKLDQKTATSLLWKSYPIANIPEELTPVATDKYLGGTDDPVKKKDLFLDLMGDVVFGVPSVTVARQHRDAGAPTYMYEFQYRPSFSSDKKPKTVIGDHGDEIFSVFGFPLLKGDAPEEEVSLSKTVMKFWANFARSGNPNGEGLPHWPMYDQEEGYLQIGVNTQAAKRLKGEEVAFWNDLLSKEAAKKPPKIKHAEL
Source text: as §2
The CES (porcine liver) activity was assessed colorimetrically in 0.1 M K/Na phosphate buffer pH 8.0, 25 °C, by measuring the absorbance of 4-nitrophenol at 405 nm. Final enzyme and substrate (4-NPA) concentrations were 0.02 unit/mL and 1 mM, respectively. Reagent blanks included all constituents except enzyme.
Test compounds were dissolved in DMSO. Reaction mixtures contained a final DMSO concentration of 2% (v/v). Enzyme inhibition was first assessed at a single concentration of 20 µM for each compound after a 5 min incubation at 25 °C in three separate experiments. […] Substrate was then added and residual enzyme activity relative to an inhibitor-free control was measured using a Bio-Rad Benchmark Plus microplate reader (Marnes-la-Coquette, France).
Measurements were performed in a Bio-Rad Benchmark Plus microplate reader. Each experiment was performed in triplicate. Plots, linear regressions and values of IC50, were determined using Origin 6.1 for Windows, OriginLab (Northampton, MA, USA). Results were calculated using GraphPad Prism version 6.05 for Windows, GraphPad Software (La Jolla, CA, USA) and presented as mean ± SEM.

[8] = tested on: Candida albicans RCPF Y 401/NCTC 885/653; assay: Antifungal susceptibility testing, C. albicans; settings: NCTC885, read-out: MIC for fungi strains inhibition, C. albicans
Source text: (§3) The solvent was DMSO. […] In each test, a growth control and a sterility control were used.

[9] = tested on: Neisseria gonorrhoeae ATCC 49226/NCTC 12700; assay: Antibacterial activity against Neisseria gonorrhoeae; assay type: cell-based; settings: read-out: MIC against Neisseria gonorrhoeae
[10] = tested on: Trichophyton rubrum RCPF F 1408; assay: Antifungal susceptibility testing, T. rubrum; settings: Trichophyton rubrum, RCPFF1408, read-out: MIC for fungi strains inhibition, T. rubrum
Source text: as §3

[11] = tested on: Microsporum canis RCPF F 1643/1585; assay: Antifungal susceptibility testing, M. canis; settings: Microsporum canis, RCPFF1643/1585, read-out: MIC for fungi strains inhibition, M. canis
Source text: as §3

[12] = tested on: Epidermophyton floccosum RCPF F 1659/17; assay: Antifungal susceptibility testing, E. floccosum; settings: Epidermophyton floccosum, RCPFF1659/17, read-out: MIC for fungi strains inhibition, E. floccosum
Source text: as §3

[13] = Acute toxicity evaluation in mice (ip); settings: CD-1, mouse, in vivo, 300 mg/kg
Experimental: The toxicity evaluation was performed on CD-1 mice. […] The tested compounds in 1% starch mucilage were injected intraperitoneally into three mice. Then, animals were observed during 14 days, the number of deaths was counted and % of viability calculated.

[14] = tested on: Sprague-Dawley (SD) rats; assay: Hot plate test (analgesic activity); assay type: in vivo; settings: Rattus norvegicus, hot plate test, rats, ip, dose 15 mg/kg, n.a. = inactive (p > 0.05)
Outline: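 Test compounds were given i.p. as suspensions in 1% starch mucilage to SD rats (3 male, 3 female per group), vehicle as negative control. At 1 and 2 h post-dose, latency to nociceptive response (jumping, hind paw licking/shaking) on a 50 °C plate was recorded, 30 s cutoff.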

[15] = molecular target: T2, equine serum butyrylcholinesterase (BChE, EC 3.1.1.8) (Equus caballus, UniProt P81908); assay: Inhibition of equine serum butyrylcholinesterase (Ellman assay); assay type: biochemical; settings: read-out: Inhibition % at 20 µM, Equine BChE
T2 construct: equine serum butyrylcholinesterase (BChE, EC 3.1.1.8); purchased Sigma-Aldrich (Saint Louis, MO, USA); host or cells: equine serum
T2 sequence (P81908 whole entry): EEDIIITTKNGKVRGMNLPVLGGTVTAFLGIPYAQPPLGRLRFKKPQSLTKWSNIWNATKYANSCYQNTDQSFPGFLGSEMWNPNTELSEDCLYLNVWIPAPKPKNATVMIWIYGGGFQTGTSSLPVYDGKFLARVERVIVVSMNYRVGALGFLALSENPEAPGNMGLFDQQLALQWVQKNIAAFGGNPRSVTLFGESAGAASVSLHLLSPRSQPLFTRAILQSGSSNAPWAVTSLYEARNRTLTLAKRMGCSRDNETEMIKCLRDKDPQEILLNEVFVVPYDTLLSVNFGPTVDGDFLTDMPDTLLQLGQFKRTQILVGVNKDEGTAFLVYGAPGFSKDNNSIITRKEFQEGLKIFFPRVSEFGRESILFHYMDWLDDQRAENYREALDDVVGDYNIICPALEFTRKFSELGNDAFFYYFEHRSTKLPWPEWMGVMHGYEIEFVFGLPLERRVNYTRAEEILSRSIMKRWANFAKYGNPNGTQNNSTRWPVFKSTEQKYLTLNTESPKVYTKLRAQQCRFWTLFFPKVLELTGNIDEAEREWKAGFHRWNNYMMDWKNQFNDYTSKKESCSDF
Outline: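 Ellman colorimetric assay with 0.02 unit/mL BChE, 1 mM butyrylthiocholine iodide and 0.33 mM DTNB, 2% (v/v) DMSO final; substrate added after enzyme-compound mixing. Residual activity versus inhibitor-free control, blanks without enzyme; triplicates, IC50 by linear regression.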

[16] = 1 h, read-out: Latent Period Prolongation, % 1 h
[17] = 2 h, read-out: Latent Period Prolongation, % 2 h

Row | Structure (SMILES) | ORAC-FL (TE, antioxidant activity in Trolox equivalents) [1] | IC50 [2] | ABTS•+-scavenging activity, TEAC (trolox equivalent antioxidant capacity) [2] | FRAP (TE, antioxidant activity in Trolox equivalents) [3] | inhibition at 20 µM [6] | inhibition at 20 µM [7] | MIC [8] | MIC [9] | MIC [10] | MIC [11] | MIC [12] | survival at 14 days [13] | change in vivo at 15 mg/kg [14, 16] | change in vivo at 15 mg/kg [14, 17] | inhibition at 20 µM [15] | also measured
1 | Cc1c(C)c2c(c(C)c1O)CCC(C)(C(=O)O)O2 (stereo not drawn) [Trolox, 6-hydroxy-2,5,7,8-tetramethychroman-2-carboxylic acid, reference compound] | 1.0 | 19.7 ± 0.8 µM | 1.0 | 1.0 |  |  |  |  |  |  |  |  |  |  |  | 
2 | COc1cccc2c1C(=O)c1c(O)c3c(c(O)c1C2=O)C[C@@](O)(C(=O)CO)C[C@@H]3O[C@H]1C[C@H](N)[C@H](O)[C@H](C)O1 [Doxorubicin, reference compound] |  |  |  |  |  |  |  |  |  |  |  |  |  |  |  | IC50 ([4]; MTT, n.a. = inactive): 4.25 ± 0.55 µM; IC50 ([5]; MTT, n.a. = inactive): 2.72 ± 0.26 µM
3 | CC1=NN(c2ccccc2)C(=O)C1 [Edaravone, reference compound] | 3.71 ± 0.06 | 21.4 ± 1.8 µM | 0.96 ± 0.04 | 0.80 ± 0.01 |  |  |  |  |  |  |  |  |  |  |  | 
4 | O=C1/C(=N\Nc2ccc(Br)cc2)C(C(F)(F)F)=NN1c1ccccc1 [5k, (4Z)-4-[2-(4-Bromophenyl)hydrazinylidene]-2-phenyl-5-(trifluoromethyl)-2,4-dihydro-3H-pyrazol-3-one] | i.t.s. |  |  |  | 5.4 ± 0.9% | 23.2 ± 2% | > 200 µg/mL | 31.2 µg/mL (≈ 75.9 µM) | > 200 µg/mL | > 200 µg/mL | > 200 µg/mL | 100% | 89% | 76% | 6 ± 1.1% | 
5 | O=C1/C(=N\Nc2ccccc2Cl)C(C(F)(F)F)=NN1c1ccccc1 [5i, (4Z)-4-[2-(2-Chlorophenyl)hydrazinylidene]-2-phenyl-5-(trifluoromethyl)-2,4-dihydro-3H-pyrazol-3-one] | i.t.s. |  |  |  | 6.3 ± 1% | 23.2 ± 1.8% | > 200 µg/mL | > 250 µg/mL | > 200 µg/mL | > 200 µg/mL | > 200 µg/mL | 100% | 42% | 61% | 6.4 ± 1.3% | 
6 | CC[C@@]1(O)C(=O)OCc2c1cc1n(c2=O)Cc2cc3ccccc3nc2-1 [Camptothecin, reference compound] |  |  |  |  |  |  |  |  |  |  |  |  |  |  |  | IC50 [4]: 1.08 ± 0.98 µM; IC50 [5]: 5.38 ± 0.48 µM
